The results in this text go back to patent publication US11376580B2, “Methods and systems comprising modified pipettes for transferring and preserving biomaterial” (UNIVERSITY OF PITTSBURGH—OF THE COMMONWEALTH SYSTEM OF …, priority 2017, dated 2022).

Where two headings read alike, the source gives them in different places.

The subject of data set [1] is HEK293 cells.
In data set [2] the test system is Human primary hepatocytes. Type of data set: in vitro ADME.
Data set [3] is described as follows: in vitro. The settings on record: human.
Data set [4] is described as follows: in vitro. To be noted: human. This is another data set of the same source.
The nature of data set [5]: in vitro. The settings on record: human. The source holds these as a separate data set.
Data set [6] has as its system HEK293 cells. The source holds these as a separate data set.
For data set [7], the system named is primary human hepatocytes.
The subject of data set [8] is primary human hepatocytes. To be noted: for Metabolite Generation (marker metabolite of the probe): 10 uM. On the procedure: Probe metabolism was tested as a fresh hepatocyte suspension culture, as a fresh agarose gelled BioActivator and after thawing a cryopreserved BioActivator. In all three testing conditions 50,000 viable hepatocytes were tested as following: (a) as a suspension in 500 μl of probe media, or, (b) in 50 μl of gelled agarose submerged in 450 μl of probe media. Cryopreserved BioActivators were thawed for testing after 48 hours at −80° C. Probe media was collected from the 3 test conditions at 30 minutes and 18 hours. Ice-cold acetonitrile containing 10 μM chlorzoxazone (internal extraction standard) was added at a 2:1 ratio to the collected media. The extraction mixture was analyzed by LC MS/MS.

[9] abbreviates: HEK293 Cytotoxicity LC50, HEK293 + BioActivator Pre-Conditioned Media.
The mark [10] stands for this setting: HEK293 Cytotoxicity LC50, HEK 293 + Cell Free Agarose Bead Pre-Conditioned Media.
Where [11] appears, read: HEK293 Cytotoxicity LC50, HEK293 + BioActivator.
[12] abbreviates: HEK293 Cytotoxicity LC50, HEK 293 + cell free agarose beads.
Setting [13] is: HEK293 Cytotoxicity LC50, HEK293 + BioActivator Pre-Conditioned Media, compounds pre-conditioned 24 h in BioActivator, then 24 h on HEK293, Mean ± SD (N = 3).
[14] abbreviates: HEK293 Cytotoxicity LC50, HEK293 + BioActivator, co-cultured 24 hours with BioActivators, Mean ± SD (N = 3), max 250 μM.
Setting [15] is: HEK293 Cytotoxicity LC50, HEK 293 + cell free agarose beads, co-cultured 24 hours with cell free agarose beads, Mean ± SD (N = 3), max 250 μM.

Consider Aflatoxin B1, for which, in the data set on HEK293 cells [1], the “HEK293 cytotoxicity co-cultured with BioActivator (in words)” value was “No HEK293 cytotoxicity” and the “HEK293 cytotoxicity co-cultured with cell free agarose bead (in words)” value is on record as “No HEK293 cytotoxicity”.

As to `O=c1ccc2ccccc2o1` [coumarin], in data set [2], the “Metabolite generation in slotted pipette tip compared with control hepatocyte suspension cultures (in words)” value is “compare favorably”.

Regarding `C=CC(N)=O` [Acrylamide], the CC50 in “in vitro [3]” was greater than 250 µM; in the data set “in vitro [4]” (setting [9]), greater than 250 µM; in the data set “in vitro [4]” (setting [10]), greater than 250 µM; in the data set “in vitro [5]” (setting [11]) it was 167 ± 7.9 µM; in “in vitro [5]” (setting [12]), greater than 250 µM.

For the compound `COc1cccc2c1C(=O)c1c(O)c3c(c(O)c1C2=O)C[C@@](O)(C(=O)CO)C[C@@H]3O[C@H]1C[C@H](N)[C@H](O)[C@H](C)O1` [Doxorubicin], the CC50 in “in vitro [3]” is 104 ± 4.6 µM; in “in vitro [4]” (setting [13]) it was 71 ± 2.7 µM; in “in vitro [5]” (setting [14]) it was 59 ± 5.1 µM; in “in vitro [5]” (setting [15]) it was 108 ± 9.3 µM. Besides, the “HEK293 cytotoxicity of compounds pre-conditioned in the BioActivator (in words)” value in the data set on HEK293 cells [6] was “produce cytotoxicity”. The “HEK293 cytotoxicity co-cultured with BioActivator (in words)” value with HEK293 cells [1] (human) is “measurable LC50 responses”. In the data set with HEK293 cells [1] (human), the “HEK293 cytotoxicity co-cultured with cell free agarose bead (in words)” value was “measurable LC50”. The “Cytotoxicity in BioActivator hepatocytes at end of co-culture (in words)” value in data set [7] is listed as “cytotoxicity was evident”; in data set [7] (human), “LC50 responses”.

For `O=C(O)Cc1ccccc1Nc1c(Cl)cccc1Cl` [Diclofenac], the “Effect of cryopreservation on hepatocyte clearance of probe (in words)” value in data set [8] is “minimal impact”. The “Metabolite Generation (marker metabolite of the probe)” value in data set [8] (human, 30 min) is listed as 0.98 pmol/min/10^6 hepatocytes. Also, the “Metabolite generation in slotted pipette tip compared with control hepatocyte suspension cultures (in words)” value in data set [2] is listed as “compare favorably”.

As to `c1ccc2c(c1)cc1ccc3cccc4ccc2c1c34` [Benzo[a]pyrene], the CC50 in the data set “in vitro [3]”, in “in vitro [4]” (setting [13]), in “in vitro [5]” (setting [14]) and in “in vitro [5]” (setting [15]) was greater than 250 µM each time. Further, the “HEK293 cytotoxicity co-cultured with BioActivator (in words)” value in the data set with HEK293 cells [1] (24 h co-culture with BioActivator, up to 250 μM, compared to cell free agarose bead) was “No HEK293 cytotoxicity”. Besides, in the data set on HEK293 cells [1] (24 h co-culture with cell free agarose bead, up to 250 μM), the “HEK293 cytotoxicity co-cultured with cell free agarose bead (in words)” value was “No HEK293 cytotoxicity”.

Regarding `O=C1OC(c2ccc(O)cc2)(c2ccc(O)cc2)c2ccccc21` [Phenolphthalein], the “Effect of cryopreservation on hepatocyte clearance of probe (in words)” value in data set [8] is recorded as “minimal impact”. The “Metabolite Generation (marker metabolite of the probe)” value in data set [8] (30 min) was 0.12 pmol/min/10^6 hepatocytes; in data set [8] (18 h) it was 0.02 pmol/min/10^6 hepatocytes. The “Metabolite generation in slotted pipette tip compared with control hepatocyte suspension cultures (in words)” value in data set [2] is reported as “compare favorably”.

As to `O=P1(N(CCCl)CCCl)NCCCO1` (stereo not shown) [Cyclophosphamide], the CC50 in the data set “in vitro [3]”, in the data set “in vitro [4]” (setting [9]), in “in vitro [4]” (setting [10]), in the data set “in vitro [5]” (setting [11]) and in “in vitro [5]” (setting [12]) was greater than 250 µM each time. Besides, the “HEK293 cytotoxicity co-cultured with BioActivator (in words)” value in the data set with HEK293 cells [1] (human) is “No HEK293 cytotoxicity”. The “HEK293 cytotoxicity co-cultured with cell free agarose bead (in words)” value in the data set with HEK293 cells [1] (human) was “No HEK293 cytotoxicity”.

With `Nc1cc2c3ccccc3ccc2c2ccccc12` [6-Aminochrysene], the CC50 in the data set “in vitro [3]” was greater than 250 µM; in the data set “in vitro [4]” (setting [13]), 241 ± 9.8 µM; in “in vitro [5]” (setting [14]), 84 ± 2 µM; in “in vitro [5]” (setting [15]) it was greater than 250 µM. In addition, the “HEK293 cytotoxicity of compounds pre-conditioned in the BioActivator (in words)” value in the data set with HEK293 cells [6] (compared to compounds pre-conditioned in cell free agarose beads) is given as “produce cytotoxicity”.

As to `O=[N+]([O-])c1ccc(O)cc1` [4-Nitrophenol, 4-Nitrophenol], the CC50 in “in vitro [3]” is greater than 250 µM; in the data set “in vitro [4]” (setting [9]), 199 µM; in “in vitro [4]” (setting [10]), greater than 250 µM; in the data set “in vitro [5]” (setting [11]) it was 101 µM; in “in vitro [5]” (setting [12]), greater than 250 µM. The “HEK293 cytotoxicity of compounds pre-conditioned in the BioActivator (in words)” value in the data set on HEK293 cells [6] was “produce cytotoxicity”.

On to `Nc1ccc2ccccc2c1` [2-Napthylamine, 2-Napthylamine], for which, in the data set with HEK293 cells [1], the “HEK293 cytotoxicity co-cultured with BioActivator (in words)” value is reported as “No HEK293 cytotoxicity” and the “HEK293 cytotoxicity co-cultured with cell free agarose bead (in words)” value is reported as “No HEK293 cytotoxicity”. Also, in data set [7], the CC50 is greater than 250 µM.

As to `CCOc1ccc(NC(C)=O)cc1` [Phenacetin], the “Metabolite generation in slotted pipette tip compared with control hepatocyte suspension cultures (in words)” value in data set [2] is on record as “compare favorably”.
